Tests used:
[1] = Intrinsic dissolution of ibuprofen and HydroSolve-Ibuprofen in pH 7.2 buffer (paddle, absorbance 221 nm); format: physicochemical; conditions: 700 ml pH 7.2 buffer, paddle 50 rpm
Protocol: b. Procedures: • 1.Melt Gelucire and Pluronic, and dissolve ibuprofen into the mixture. • 2.Add the above solution into Sorbitol Instant while stirring. • 3.Cool down and pass through #20 mesh screen. c. Dissolution Test Using the Dissolution Test as follows: • 1.Measure 3.3 mg and 17.2 mg of ibuprofen (20 micron) and HydroSolve - Ibuprofen, respectively. • 2.Measure the dissolution profiles using 700 ml of pH 7.2 buffer and paddle at 50 rpm. • 3.Measure the absorbance at 221 nm.

[2] = Intrinsic dissolution of phenytoin and HydroSolve-phenytoin in DI water (paddle method, absorbance 220 nm); format: physicochemical; conditions: 900 ml D1 water, Paddle Method 50 rpm
Protocol: b. Procedures: • 1. Melt Gelucire and Pluronic together. • 2. Dissolve the phenytoin into above solution. • 3. Congeal this suspension and pass through #20 mesh. • 4. Measure about 32 and 110 mg of phenytoin and HydroSolve - phenytoin, respectively. • 5. Measure the dissolution profiles using 900 ml of D1 water and Paddle Method at 50 rpm. • 6. Using D1 water as blank, measure the absorbance at 220 nm of each sample which is filtered through 0.45 micron filters. • 7. Calculate the percent released by standard curve: Absorbance = 0.4072 x Concentration (mg/100ml) + 0.0227 [formula] c.

SMILES	Dissolution profile (Results) ([1]; Time 10 min)	Dissolution profile (Results) ([1]; Time 20 min)	Dissolution profile (Results) ([1]; Time 30 min)	% Dissolved (%) ([2]; Time 0.5 h)	% Dissolved (%) ([2]; Time 1 h)	% Dissolved (%) ([2]; Time 2 h)	% Dissolved (%) ([2]; Time 3 h)
CC(C)Cc1ccc(C(C)C(=O)O)cc1 (stereo not shown) [Ibuprofen]	75.93	81.14	81.14	–	–	–	–
O=C1NC(=O)C(c2ccccc2)(c2ccccc2)N1 [Phenytoin]	–	–	–	3.03%	5.92%	14.42%	20.58%
